From publication PMC5285354, “Cationic Net Charge and Counter Ion Type as Antimicrobial Activity Determinant Factors of Short Lipopeptides” (Frontiers in Microbiology, 2017)
Converted amounts (≈) assume the structure as drawn. Where a SMILES comes first, the peptide text is derived from it. The star is where a group is joined. Palmitoyl = CCCCCCCCCCCCCCCC(=O)*; Myristoyl = CCCCCCCCCCCCCC(=O)*

Tests used:
Format in all cases: cell-based
[1] = system: Candida albicans (ATCC 10231)
human red blood cells = conditions: 1 h
In short: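 Washed donor erythrocytes (4% v/v in PBS, EDTA-anticoagulated) incubated with graded lipopeptide concentrations for 1 h at 37 °C; hemoglobin release read at 550 nm in supernatants. Scaled between 0.1% Triton X-100 (100%) and PBS (0%); MHC is the lowest concentration giving 10% hemolysis.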

[2] = system: Proteus vulgaris (PCM 2668); conditions: 24 h
[3] = system: Pseudomonas aeruginosa (ATCC 9027); conditions: ATCC 9027, 24 h
[4] = system: Staphylococcus epidermidis (PCM 2118); conditions: for MIC Staphylococcus epidermidis: PCM 2118, 18 h; for MBC Staphylococcus epidermidis: PCM 2118, 24 h
In short: (§1)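 Broth microdilution per CLSI: Mueller-Hinton broth, 10^5 cfu/mL inoculum, 18 h at 37°C for bacteria; Sabouraud dextrose broth, 10^3 cfu/mL, 48 h at 25°C for fungi. MIC (μg/mL) is the lowest lipopeptide concentration inhibiting visible growth; MBC/MFC also determined. Triplicate on three days.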

[5] = system: Staphylococcus aureus (ATCC 25923); conditions: for MBC Staphylococcus aureus, lipopeptides without TFA counter ion / MIC Staphylococcus aureus / MIC Staphylococcus aureus, lipopeptides without TFA counter ion: ATCC 25923, 18 h; for MBC Staphylococcus aureus: ATCC 25923, 24 h
In short: as §1

[6] = system: Enterococcus faecalis (ATCC 29212); conditions: for MBC Enterococcus fecalis, lipopeptides without TFA counter ion / MIC Enterococcus fecalis / MIC Enterococcus fecalis, lipopeptides without TFA counter ion: ATCC 29212, 18 h; for MBC Enterococcus fecalis: ATCC 29212, 24 h
In short: as §1

[7] = system: Aspergillus brasiliensis (ATCC 16404); conditions: ATCC 16404, 48 h
In short: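 Lowest lipopeptide concentration (μg/mL) with no observable growth gave the MIC, alongside MBC/MFC, by CLSI microbroth dilution. Fungi: Sabouraud dextrose broth, 10^3 cfu/mL start, 25°C for 48 h; bacteria: MH broth, 10^5 cfu/mL, 37°C for 18 h. Run in triplicate, three separate days.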

[8] = system: Bacillus subtilis (ATCC 6633); conditions: for MIC Bacillus subtillis: ATCC 6633, 18 h; for MBC Bacillus subtillis: ATCC 6633, 24 h
In short: as §1

[9] = system: Candida albicans (ATCC 10231); conditions: ATCC 10231, 48 h
In short: as §1

[10] = system: Proteus vulgaris (PCM 2668); conditions: 18 h
In short: as §1

[11] = system: Klebsiella pneumoniae (ATCC 700603); conditions: for MBC Klebsiella pneumoniae, lipopeptides without TFA counter ion / MIC Klebsiella pneumoniae / MIC Klebsiella pneumoniae, lipopeptides without TFA counter ion: ATCC 700603, 18 h; for MBC Klebsiella pneumoniae: ATCC 700603, 24 h
In short: as §1

[12] = system: Escherichia coli (ATCC 25922); conditions: for MBC Escherichia coli, lipopeptides without TFA counter ion / MIC Escherichia coli / MIC Escherichia coli, lipopeptides without TFA counter ion: ATCC 25922, 18 h; for MBC Escherichia coli: ATCC 25922, 24 h
In short: as §1

[13] = system: Candida tropicalis (PCM 2681); conditions: PCM 2681, 48 h
In short: as §1

[14] = system: Pseudomonas aeruginosa (ATCC 9027); conditions: ATCC 9027, 18 h
In short: as §1

MIC Staphylococcus epidermidis [4] | MIC Staphylococcus aureus [5] | MIC Enterococcus fecalis [6] | MIC Aspergillus brasiliensis [7] | MIC Bacillus subtillis [8] | MIC Candida albicans [9] | Compound | MFC Candida albicans, lipopeptides without TFA counter ion [1] | Hemolysis HC10 (MHC), concentration of lipopeptide inducing 10% of hemolysis (human red blood cells) | MBC Proteus vulgaris [2] | MBC Pseudomonas aeruginosa [3] | MBC Staphylococcus epidermidis [4] | MBC Staphylococcus aureus, lipopeptides without TFA counter ion [5] | MIC Staphylococcus aureus, lipopeptides without TFA counter ion [5] | MBC Staphylococcus aureus [5] | MBC Enterococcus fecalis, lipopeptides without TFA counter ion [6] | MIC Enterococcus fecalis, lipopeptides without TFA counter ion [6] | MBC Enterococcus fecalis [6] | MFC Aspergillus brasiliensis [7] | MBC Bacillus subtillis [8] | MFC Candida albicans [9] | other results
4 µg/mL (≈ 7.03 µM) | 8 µg/mL (≈ 14.1 µM) | 8 µg/mL (≈ 14.1 µM) | 128 µg/mL (≈ 225 µM) | 4 µg/mL (≈ 7.03 µM) | 128 µg/mL (≈ 225 µM) | CCCCCCCCCCCCCCCC(=O)N[C@@H](CCCCN)C(=O)NCC(=O)N[C@@H](CCCCN)C(N)=O [C16-KGK-NH2] (Palmitoyl-Lys-Gly-Lys-NH2) | 128 µg/mL (≈ 225 µM) | 64 µg/mL | >512 µg/mL | 32 µg/mL (≈ 56.3 µM) | 4 µg/mL (≈ 7.03 µM) | 4 µg/mL (≈ 7.03 µM) | 4 µg/mL (≈ 7.03 µM) | 8 µg/mL (≈ 14.1 µM) | 4 µg/mL (≈ 7.03 µM) | 4 µg/mL (≈ 7.03 µM) | 16 µg/mL (≈ 28.1 µM) | 128 µg/mL (≈ 225 µM) | 4 µg/mL (≈ 7.03 µM) | 128 µg/mL (≈ 225 µM) | MIC Candida albicans, lipopeptides without TFA counter ion [9]: 128 µg/mL (≈ 225 µM); MIC Proteus vulgaris [10]: >512 µg/mL; MBC Klebsiella pneumoniae, lipopeptides without TFA counter ion [11]: 64 µg/mL (≈ 113 µM); MIC Klebsiella pneumoniae [11]: 16 µg/mL (≈ 28.1 µM); MIC Klebsiella pneumoniae, lipopeptides without TFA counter ion [11]: 32 µg/mL (≈ 56.3 µM); MBC Klebsiella pneumoniae [11]: 16 µg/mL (≈ 28.1 µM); MBC Escherichia coli, lipopeptides without TFA counter ion [12]: 4 µg/mL (≈ 7.03 µM); MIC Escherichia coli [12]: 8 µg/mL (≈ 14.1 µM); MIC Escherichia coli, lipopeptides without TFA counter ion [12]: 4 µg/mL (≈ 7.03 µM); MBC Escherichia coli [12]: 8 µg/mL (≈ 14.1 µM); MFC Candida tropicalis [13]: 256 µg/mL (≈ 450 µM); MIC Candida tropicalis [13]: 256 µg/mL (≈ 450 µM); MIC Pseudomonas aeruginosa [14]: 16 µg/mL (≈ 28.1 µM)
16 µg/mL (≈ 21.6 µM) | 128 µg/mL (≈ 173 µM) | 64 µg/mL (≈ 86.5 µM) | 64 µg/mL (≈ 86.5 µM) | 4 µg/mL (≈ 5.4 µM) | 128 µg/mL (≈ 173 µM) | CCCCCCCCCCCCCC(=O)N[C@@H](CCCCN)C(=O)N[C@@H](CCCCN)C(=O)N[C@@H](CCCCN)C(=O)N[C@@H](CCCCN)C(N)=O [C14-KKKK-NH2] (Myristoyl-KKKK-NH2) | 256 µg/mL (≈ 346 µM) | 256 µg/mL | >512 µg/mL | 512 µg/mL (≈ 692 µM) | 16 µg/mL (≈ 21.6 µM) | 128 µg/mL (≈ 173 µM) | 128 µg/mL (≈ 173 µM) | 128 µg/mL (≈ 173 µM) | 64 µg/mL (≈ 86.5 µM) | 64 µg/mL (≈ 86.5 µM) | 64 µg/mL (≈ 86.5 µM) | 64 µg/mL (≈ 86.5 µM) | 4 µg/mL (≈ 5.4 µM) | 128 µg/mL (≈ 173 µM) | MIC Candida albicans, lipopeptides without TFA counter ion [9]: 256 µg/mL (≈ 346 µM); MIC Proteus vulgaris [10]: >512 µg/mL; MBC Klebsiella pneumoniae, lipopeptides without TFA counter ion [11]: 128 µg/mL (≈ 173 µM); MIC Klebsiella pneumoniae [11]: 128 µg/mL (≈ 173 µM); MIC Klebsiella pneumoniae, lipopeptides without TFA counter ion [11]: 128 µg/mL (≈ 173 µM); MBC Klebsiella pneumoniae [11]: 256 µg/mL (≈ 346 µM); MBC Escherichia coli, lipopeptides without TFA counter ion [12]: 256 µg/mL (≈ 346 µM); MIC Escherichia coli [12]: 256 µg/mL (≈ 346 µM); MIC Escherichia coli, lipopeptides without TFA counter ion [12]: 256 µg/mL (≈ 346 µM); MBC Escherichia coli [12]: 256 µg/mL (≈ 346 µM); MFC Candida tropicalis [13]: 128 µg/mL (≈ 173 µM); MIC Candida tropicalis [13]: 128 µg/mL (≈ 173 µM); MIC Pseudomonas aeruginosa [14]: 256 µg/mL (≈ 346 µM)
4 µg/mL (≈ 6.39 µM) | 16 µg/mL (≈ 25.6 µM) | 16 µg/mL (≈ 25.6 µM) | 128 µg/mL (≈ 205 µM) | 4 µg/mL (≈ 6.39 µM) | 128 µg/mL (≈ 205 µM) | CCCCCCCCCCCCCCCC(=O)N[C@@H](CCCCN)C(=O)NCC(=O)N[C@@H](CCCCN)C(=O)NCC(N)=O [C16-KGKG-NH2] (Palmitoyl-KGKG-NH2) | 128 µg/mL (≈ 205 µM) | 64 µg/mL | >512 µg/mL | 8 µg/mL (≈ 12.8 µM) | 4 µg/mL (≈ 6.39 µM) | 16 µg/mL (≈ 25.6 µM) | 8 µg/mL (≈ 12.8 µM) | 32 µg/mL (≈ 51.1 µM) | 16 µg/mL (≈ 25.6 µM) | 16 µg/mL (≈ 25.6 µM) | 16 µg/mL (≈ 25.6 µM) | 128 µg/mL (≈ 205 µM) | 4 µg/mL (≈ 6.39 µM) | 128 µg/mL (≈ 205 µM) | MIC Candida albicans, lipopeptides without TFA counter ion [9]: 128 µg/mL (≈ 205 µM); MIC Proteus vulgaris [10]: >512 µg/mL; MBC Klebsiella pneumoniae, lipopeptides without TFA counter ion [11]: 32 µg/mL (≈ 51.1 µM); MIC Klebsiella pneumoniae [11]: 16 µg/mL (≈ 25.6 µM); MIC Klebsiella pneumoniae, lipopeptides without TFA counter ion [11]: 16 µg/mL (≈ 25.6 µM); MBC Klebsiella pneumoniae [11]: 16 µg/mL (≈ 25.6 µM); MBC Escherichia coli, lipopeptides without TFA counter ion [12]: 8 µg/mL (≈ 12.8 µM); MIC Escherichia coli [12]: 16 µg/mL (≈ 25.6 µM); MIC Escherichia coli, lipopeptides without TFA counter ion [12]: 8 µg/mL (≈ 12.8 µM); MBC Escherichia coli [12]: 16 µg/mL (≈ 25.6 µM); MFC Candida tropicalis [13]: 256 µg/mL (≈ 409 µM); MIC Candida tropicalis [13]: 256 µg/mL (≈ 409 µM); MIC Pseudomonas aeruginosa [14]: 8 µg/mL (≈ 12.8 µM)
